This note sets out measurements from patent US20210137934A1, “METHODS OF IDENTIFYING MYC-DRIVEN AND LIPOGENESIS-DEPENDENT NEOPLASMS AND METHODS OF TREATING THE SAME” (The Board of Trustees of the Leland Stanford Junior …, priority 2017, published 2021).

“Also recorded” adds a separate entry of the source.

In test [1] the test system is T-ALL (4188) cells. Kind of test: In vitro cell growth, 4188. The test is classed as cell-based, mouse. Conditions: 4188 T-ALL cells. As for the experimental part: (§1) Small molecule inhibitors. The small molecule, TOFA (Sigma), diluted in dimethyl sulfoxide (DMSO) to the desired concentrations is added to cell culture medium to achieve inhibition of ACACA. TOFA is an allosteric inhibitor of ACACA, the enzyme which catalyzes the rate-limiting step of fatty acid synthesis. Various concentrations of TOFA are administered to cells in culture over time to assess dose-response suppression of proliferation. For in vivo treatment of mice, 25 mg/kg TOFA is administered daily by intraperitoneal injections (IP). The stock TOFA is diluted in DMSO to 10 mg/ml, such that the final injected volume is around 50 μl since the mice weigh about 20 g. Cell counting. A volume of cells is removed from culture medium and mixed with an equal volume of 0.4% Trypan blue stain. Then 10 μl hemocytometer for cell counting. Viable cell counts are used as a measure of cell proliferation.

The subject of test [2] is human lymphoma B-cell line (P493-6). Description: In vitro cell proliferation by total live cell counts, P493-6. The format is cell-based. Conditions: P493-6 cells, various concentrations. As for the experimental part:
(§2) Cell culture conditions. P493-6 cells are cultured in Gibco's RPM11640 media under normal culture conditions of 20% O2, 4% CO2, and 37° C. P493 cells are suspension cells, and they are kept at 0.2-1.8 million cells/ml density to avoid confluency. In order to turn off Myc, 1 μg/ml of tetracycline is applied to the media for 48 hours to completely suppress Myc. Mouse-derived renal carcinoma line E28 and human RCC 786-O cell line are cultured for in vitro experiments under normal culture conditions of 20% O2, 4% CO2, and 37° C. 786-O and E28 cells are maintained in Dulbecco's Modified Eagle Medium (DMEM), which is supplemented with 10% fetal bovine serum (FBS), 1% L-glutamine, 1% sodium pyruvate, 1% nonessential amino acids, and Antibiotic-Antimycotic. Trypsin-EDTA is used to passage E28 and 786-O cells. All cell culture reagents are purchased from Gibco® (Thermo Fisher Scientific Inc.).
as §1, with “g.” for “g. Cell counting. A volume of cells is removed from culture medium and mixed with an equal volume of 0.4% Trypan blue stain. Then 10 μl hemocytometer for cell counting. Viable cell counts are used as a measure of cell proliferation.”
(§3) Cell counting. A volume of cells is removed from culture medium and mixed with an equal volume of 0.4% Trypan blue stain. Then 10 μl hemocytometer for cell counting. Viable cell counts are used as a measure of cell proliferation.

The test system of test [3] is HCC (EC4) cells. Kind of test: In vitro cell growth, EC4. The format is cell-based, mouse. As for the experimental part:
as §1

Test [4] deals with RCC (E28) cells. Kind of test: In vitro cell proliferation by total live cell counts, E28. The format is cell-based, mouse. Particulars: for cell growth / proliferation (total live cell counts): various concentrations. As for the experimental part:
as §2
as §1, with “g.” for “g. Cell counting. A volume of cells is removed from culture medium and mixed with an equal volume of 0.4% Trypan blue stain. Then 10 μl hemocytometer for cell counting. Viable cell counts are used as a measure of cell proliferation.”
as §3

The test system of test [5] is human RCC tumor derived cell line, 786-0. Kind of test: Human RCC 786-O cell line treated in vitro. The test is classed as cell-based. Conditions: 786-0 cell line treated in vitro. As for the experimental part:
as §2
(§4) Small molecule inhibitors. The small molecule, TOFA (Sigma), diluted in dimethyl sulfoxide (DMSO) to the desired concentrations is added to cell culture medium to achieve inhibition of ACACA. TOFA is an allosteric inhibitor of ACACA, the enzyme which catalyzes the rate-limiting step of fatty acid synthesis. Various concentrations of TOFA are administered to cells in culture over time to assess dose-response suppression of proliferation. […]

Test [6] relates to transgenic MYC-induced RCC. Kind of test: Transgenic MYC-induced RCC mouse model, tumor growth (kidney weight and size, histology). The test is classed as in vivo. Particulars: 25 mg/kg daily IP. As for the experimental part: as §1, with “g.” for “g. Cell counting. A volume of cells is removed from culture medium and mixed with an equal volume of 0.4% Trypan blue stain. Then 10 μl hemocytometer for cell counting. Viable cell counts are used as a measure of cell proliferation.”

Test [7] relates to PGs and PIs. Kind of test: DESI-MSI lipid profile in transgenic MYC-induced RCC. The test is classed as in vivo, mouse. As to the method: as §1, with “g.” for “g. Cell counting. A volume of cells is removed from culture medium and mixed with an equal volume of 0.4% Trypan blue stain. Then 10 μl hemocytometer for cell counting. Viable cell counts are used as a measure of cell proliferation.”
(§5) Desorption Electrospray Ionization Mass Spectrometry Imaging (DESI-MSI). DESI-MSI is used for generating two-dimensional chemical maps of various tissues sections in order to assess the lipid profile of an organ. Tissue sections of 16 μm thick are imaged by this method using a lab-built DESI-MSI source coupled to an LTQ-Orbitrap XL mass spectrometer (Thermo Fisher Scientific, MA), and the mass spectra are acquired in negative ion mode using the Orbitrap as the mass analyzer at 60,000 resolving power. […] All tissues are histopathologically evaluated after imaging using standard hematoxylin and eosin (H&E) staining, to ensure a correct interpretation of lipid signals. […]

In test [8] the test system is human RCC 786-O xenograft. Description: Human RCC 786-O xenograft in NSG mice. The test is classed as in vivo, mouse. Conditions: 25 mg/kg daily IP. As for the experimental part: as §2, §4
For orientation: Xenograft models place foreign cells or tissue in a host animal.

The subject of test [9] is PGs and PIs. Description: DESI-MSI lipid profile in human RCC xenograft. The format is in vivo, mouse. As for the experimental part:
as §1, with “g.” for “g. Cell counting. A volume of cells is removed from culture medium and mixed with an equal volume of 0.4% Trypan blue stain. Then 10 μl hemocytometer for cell counting. Viable cell counts are used as a measure of cell proliferation.”
as §5

For `C/C=C/C/C=C/CCC(=O)[C@H]1O[C@H]1C(N)=O` [cerulenin, Cerulenin], the cell growth result in test [1] and in test [3] was “growth inhibited in vitro in a dose-dependent manner” in each case. The “cell growth / proliferation (total live cell counts)” value in test [2] is listed as “growth inhibited in vitro in a dose-dependent manner”; in test [2] (listed as Cerulenin), “decreased in a dose-dependent manner”; in [4], “growth inhibited in vitro in a dose-dependent manner”.

On to `CCCCCCCCCCCCCCOc1ccc(C(=O)O)o1` [TOFA, 5-(tetradecyloxy)-2-furancarboxylic acid], for which the “cell growth / proliferation (total live cell counts)” value in test [2] is listed as “growth inhibited in vitro in a dose-dependent manner; also recorded: decreased in a dose-dependent manner”; in test [4], “growth inhibited in vitro in a dose-dependent manner; also recorded: similar”. Besides, the “tumor cell response in vitro” value in [5] was “exhibited tumor regression”. Also, the “tumor progression / regression, treatment after tumor onset” value in [6] (treatment at week 2 (15 day MYC on tumor), kidney weight and size, histology) is “regressed; also recorded: induced tumor regression; also recorded: significantly reduces kidney tumor progression”. Besides, the “tumor growth / tumorigenesis, treatment before tumor onset” value in test [6] (treatment from week 0 (day 0 MYC on)) is “blocked; also recorded: prevented tumor growth; also recorded: completely prevents tumorigenesis”. In addition, the “PGs and PIs by DESI-MSI during tumor initiation and regression” value in test [7] was “suppressed; also recorded: block PGs and PIs”. Moreover, the xenograft tumor growth result in test [8] is “regresses; also recorded: exhibited tumor regression”. In addition, in test [9], the “PGs and PIs by DESI-MSI” value was “block PGs and PIs”. The “rescue of growth inhibition by addition of oleate” value in test [4] (oleate added) is on record as “partially rescuable; also recorded: partially rescued”.
